Results on 28 molecules are retold here after US20090209536A1, “AMINOQUINAZOLINE CANNABINOID RECEPTOR MODULATORS FOR TREATMENT OF DISEASE” (KALYPSYS, INC., priority 2007, published 2009).

Like-named read-outs stand apart in the source and are kept apart here.

Test [1] addresses T1, human cannabinoid receptor type 1 (Homo sapiens, UniProt P21554).
T1 construct: purchased Perkin Elmer RBHCB1M; host or cells: HEK 293 EBNA cells
As to the kind of experiment: Human CB1 Radioligand Binding Assay (basis of selectivity, CB2 vs. CB1). To be noted: CB1: HEK 293 EBNA cells expressing human CB1; CB2: CHO CB2 membranes. The procedure:
2. Human CB1 Radioligand Binding Assay
The incubation buffer was composed of 50 mM Tris-HCl pH 7.4, 2.5 mM EDTA, 5 mM MgCl2, 5.0 mg/ml fatty acid free BSA and the wash buffer was composed of 50 mM Tris-HCl pH 7.4, 2.5 mM EDTA, 5 mM MgCl2, 0.5 mg/ml fatty acid free BSA.

Test [2] has as its target T2, human cannabinoid receptor type 2 (Homo sapiens, UniProt P34972).
T2 construct: expressed in transfected cells; membrane preparation
The test can be described thus: Human CB2 Radioligand Binding Assay. The conditions noted are these: membranes from stably transfected CHO CB2 cells. On the procedure: 1. Human CB2 Radioligand Binding Assay
This receptor binding filtration assay measures the receptor-ligand interactions of compounds by measuring ability to compete with a radiolabeled control ligand. Reactions were performed in 96 deep-well plate (Costar 3961) with a final volume of 600 ul. Compounds were added to each well either in single point (10 uM final) or dose-response. Compounds were delivered in DMSO or further diluted in incubation buffer to a final assay DMSO concentration of 1%. Incubation buffer (50 mM Tris-HCl pH 7.4, 2.5 mM EGTA, 5 mM MgCl2, 5.0 mg/ml fatty acid free BSA) was added to each well. Following buffer addition, [^3H] CP-55,940 was added. Tritiated CP-55,940 (Perkin Elmer) was used at the Kd determined from prior saturation binding experiments conducted on each lot of membranes. Membrane preparations from stably transfected CHO CB2 cells were added and the reaction was incubated for 90 minutes at 30° C. Unifilter GF/C filtration plates (Perkin Elmer) were pre-wet with 0.05% polyethylenimine. Samples were transferred to Unifilter plates and separation of unbound radioligand was achieved using a vacuum manifold (Millipore). Following thorough washing with 5 ml/well ice-cold wash buffer (50 mM Tris-HCl pH 7.4, 2.5 mM EGTA, 5 mM MgCl2, 0.5 mg/ml fatty acid free BSA), filterplates were dried completely. Betaplate Scint Scintillation cocktail (25 ul, Perkin Elmer) was applied and plates were read using Microbeta Trilux (Wallac). Data analysis was performed in Spotfire. Activity of the positive control (100 nM CP-55,940) was set as 100% efficacy.
Stable recombinant Human CB2-CHO cell membranes were prepared as follows: Chinese Hamster Ovarian (CHO) cells stably expressing human cannabinoid receptor type 2 were grown to 90% confluence in 15×100 mm culture dishes under puromycin selection (5 ug/ml) Cells were harvested from culture flasks using a cell scraper, were washed once with cold phosphate-buffered saline (calcium and magnesium free) and pelleted by centrifugation at 400 g for 5 min at 4° C. Cell pellet was washed once with cold phosphate-buffered saline and centrifuged again at 400×g for 5 min at 4° C. The pellet was suspended in ice-cold lysis buffer (10 mM Tris-HCl, 0.1 mM EDTA, containing […], pH 7.5) and homogenized in a chilled 7 ml glass dounce homogenizer using 50 strokes. The homogenate was centrifuged at 400 g for 15 min at 4° C. The cloudy supernatant was collected and centrifuged at 41000 g for 30 min at 4° C. The resulting pellet was washed with ice-cold sucrose-free lysis buffer and centrifuged again at 41000 g for 30 min at 4° C. The membrane pellet was suspended in sucrose-free storage buffer (10 mm Tris-HCl, 0.1 mM EDTA, pH 7.5) to a concentration of 2-3 mg protein/ml. Aliquots were flash frozen in liquid nitrogen and stored at −80° C. Concentration was determined using Dc protein assay kit (Bio-Rad).

[3] abbreviates: competition with [3H] CP-55,940, read-out: CB2 Ligand Binding Asssay EC50.

T2 sequence (P34972 whole entry): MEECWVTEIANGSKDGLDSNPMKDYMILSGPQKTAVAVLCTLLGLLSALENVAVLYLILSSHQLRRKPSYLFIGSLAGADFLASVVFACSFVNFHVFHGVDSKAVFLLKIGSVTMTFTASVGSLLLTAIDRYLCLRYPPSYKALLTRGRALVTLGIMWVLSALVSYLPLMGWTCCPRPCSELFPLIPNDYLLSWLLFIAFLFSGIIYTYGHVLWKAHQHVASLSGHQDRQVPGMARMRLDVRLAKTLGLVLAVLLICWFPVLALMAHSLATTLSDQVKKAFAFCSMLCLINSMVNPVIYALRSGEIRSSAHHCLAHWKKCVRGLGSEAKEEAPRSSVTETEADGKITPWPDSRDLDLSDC
T1 sequence (P21554 whole entry): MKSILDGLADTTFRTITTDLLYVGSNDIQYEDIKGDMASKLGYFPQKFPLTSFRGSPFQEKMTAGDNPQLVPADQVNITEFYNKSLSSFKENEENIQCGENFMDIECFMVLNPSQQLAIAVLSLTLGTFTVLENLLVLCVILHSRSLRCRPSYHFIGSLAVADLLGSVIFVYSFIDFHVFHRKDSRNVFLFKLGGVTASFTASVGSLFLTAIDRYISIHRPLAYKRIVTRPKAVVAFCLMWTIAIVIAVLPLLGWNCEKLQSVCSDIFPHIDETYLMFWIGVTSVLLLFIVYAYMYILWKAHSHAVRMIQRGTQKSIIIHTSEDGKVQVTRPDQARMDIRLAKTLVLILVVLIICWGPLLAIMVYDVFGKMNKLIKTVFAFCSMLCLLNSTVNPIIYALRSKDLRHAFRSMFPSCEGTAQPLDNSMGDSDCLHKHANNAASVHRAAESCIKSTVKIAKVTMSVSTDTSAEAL

As a reminder, the EC50 is the midpoint of the concentration-response curve. For `CCCN1CCN(c2nc(-c3ccccc3Cl)nc3ccccc23)CC1` [Example 108, 2-(2-Chlorophenyl)-4-(4-propylpiperazin-1-yl)quinazoline], the “Selectivity, CB2 vs. CB1” value in test [1] is “+ (+ indicates > 10−fold)”. The EC50 in test [2] (setting [3]) was under 1000 nM. For `c1ccc2c(N3CCCC3)nc(C3CCCCC3)nc2c1` [Example 36, 2-Cyclohexyl-4-(pyrrolidin-1-yl)quinazolines], in test [1], the “Selectivity, CB2 vs. CB1” value is recorded as “+ (+ indicates > 10−fold)”. For the same molecule, the EC50 in test [2] (setting [3]) is under 1000 nM. On the same counts, the results for `Clc1ccccc1-c1nc(NCC2CCCO2)c2ccccc2n1` (stereo not shown) [Example 188, 2-(2-Chlorophenyl)-N-((tertrahydrofuran-2-yl)methyl)quinzaoline-4-amine] are “− (− indicates ≦ 10−fold)” and over 1000 nM. As to `CCOC(=O)N1CCN(c2nc(-c3ccccc3Cl)nc3cccc(F)c23)CC1` [Example 247, Ethyl 4-(2-(2-chlorophenyl)-5-fluoroquinazolin-4-yl)piperazine-1-carboxylate], the “Selectivity, CB2 vs. CB1” value in test [1] is listed as “+ (+ indicates > 10−fold)”. The EC50 in test [2] (setting [3]) is under 1000 nM. In the case of `CCOC(=O)N1CCN(c2nc(-c3ccc(C(C)(C)C)cc3)nc3ccc(Cl)cc23)CC1` [Example 252, Ethyl 4-(2-(4-tert-butylphenyl)-6-chloroquinazolin-4-yl)piperazine-1-carboxylate], the “Selectivity, CB2 vs. CB1” value in test [1] is on record as “− (− indicates ≦ 10−fold)”. In addition, the EC50 in test [2] (setting [3]) was over 1000 nM. On the same counts, the results for `CN(Cc1ccccc1)c1nc(-c2ccc(F)c(F)c2)nc2ccccc12` [Example 17, N-benzyl-2-(3,4-difluorophenyl)-N-methylquinazolin-4-amine] are “− (− indicates ≦ 10−fold)” and over 1000 nM.

Take `CCOC(=O)N1CCN(c2nc(Cc3cccc4ccccc34)nc3ccccc23)CC1` [Example 345, Ethyl 4-(2-(naphthalen-1-ylmethyl)quinazolin-4-yl)piperazine-1-carboxylate]: the “Selectivity, CB2 vs. CB1” value in test [1] was “+ (+ indicates > 10−fold)”. The EC50 in test [2] (setting [3]) is under 1000 nM. The matching figures for `FC(F)(F)CN1CCN(c2nc(-c3ccccc3Cl)nc3ccccc23)CC1` [Example 104, 2-(2-chlorophenyl)-4-(4-(2,2,2-trifluoroethyl)piperazin-1-yl)quinazoline]: “− (− indicates ≦ 10−fold)” and under 1000 nM. Turning to `c1ccc(CNc2nc(C3CCCCC3)nc3ccccc23)cc1` [Example 38, N-Benzyl-2-cyclohexylquinazolin-4-amine], the “Selectivity, CB2 vs. CB1” value in test [1] is “− (− indicates ≦ 10−fold)”. Moreover, the EC50 in test [2] (setting [3]) was over 1000 nM. On the same counts, the results for `Clc1ccccc1-c1nc(N2CCN(c3nccs3)CC2)c2ccccc2n1` [Example 264, 2-(4-(2-(2-Chlorophenyl)quinazolin-4-yl)piperazin-1-yl)thiazole] are “− (− indicates ≦ 10−fold)” and over 1000 nM. The matching figures for `CC(C)(C)c1ccc(-c2nc(N3CCSCC3)c3ccccc3n2)cc1` [Example 114, 2-(4-tert-Butylphenyl)-4-thiomorpholin-4-ylquinazoline]: “+ (+ indicates > 10−fold)” and under 1000 nM.

Consider `CC(=O)N1CCN(c2nc(-c3ccccc3F)nc3cccc(Cl)c23)CC1` [Example 237, 1-(4-(5-Chloro-2-(2-fluorophenyl)quinazolin-4-yl)piperazin-1-yl)ethanone], for which the “Selectivity, CB2 vs. CB1” value in test [1] is given as “+ (+ indicates > 10−fold)”. Further, the EC50 in test [2] (setting [3]) is under 1000 nM. The matching figures for `Clc1ccc2nc(-c3ccccc3Cl)nc(N3CCSCC3)c2c1` [Example 207, 4-(6-Chloro-2-(2-chlorophenyl)quinazolin-4-yl)thiomorpholine]: “− (− indicates ≦ 10−fold)” and under 1000 nM. The matching figures for `CN(Cc1ccccc1)c1nc(-c2ccc(Cl)cc2)nc2ccccc12` [Example 120, N-Benzyl-2-(4-chlorophenyl)-N-methylquinazolin-4-amine]: “− (− indicates ≦ 10−fold)” and over 1000 nM. Turning to `Clc1ccc2c(N3CCOCC3)nc(C3CCCCC3)nc2c1` [Example 165, 4-(7-Chloro-2-cyclohexylquinazolin-4-yl)morpholine], the “Selectivity, CB2 vs. CB1” value in test [1] is on record as “+ (+ indicates > 10−fold)”. Further, the EC50 in test [2] (CB2 Ligand Binding Asssay EC50, competition with [3H] CP-55,940) is over 1000 nM. On to `CC(C)(C)c1ccc(Nc2nc(-c3ccc(OC(F)(F)F)cc3)nc3ccccc23)cc1` [Example 143, (4-tert-Butylphenyl)-[2-(4-trifluoromethoxyphenyl)-quinazolin-4-yl]amine], for which the EC50 in test [2] (setting [3]) is over 1000 nM. With `CCOC(=O)N1CCN(c2nc(-c3ccc(Cl)cc3)nc3ccc(Cl)cc23)CC1` [Example 210, Ethyl 4-(6-chloro-2-(4-chlorophenyl)quinazolin-4-yl)piperazine-1-carboxylate], the EC50 in test [2] (setting [3]) was over 1000 nM. On the same count and under the same terms, with `CN(Cc1ccccc1)c1nc(C2CCCCC2)nc2ccccc12` [Example 39, N-Benzyl-2-cyclohexyl-N-methylquinazolin-4-amine] the figure was under 1000 nM; with `O=S(=O)(NCc1nc(N2CCOCC2)c2ccccc2n1)c1ccc(Cl)cc1` [Example 293, 4-Chloro-N-((4-morpholinoquinazolin-2-yl)methyl)benzenesulfonamide], over 1000 nM; with `Fc1ccc(-c2nc(N3CCCC3)c3ccccc3n2)cc1F` [Example 14, 2-(3,4-Difluorophenyl)-4-(pyrrolidin-1-yl)quinazoline], over 1000 nM. Same read-out and setting: with `COC(=O)c1ccc2nc(-c3ccccc3Cl)nc(Nc3ccccc3C)c2c1` [Example 329, Methyl 2-(2-chlorophenyl)-4-(o-tolylamino)quinazoline-6-carboxylate] the figure was over 1000 nM. Same read-out and setting: with `CCOC(=O)N1CCN(c2nc(-c3ccccc3Cl)nc3cc(C(=O)N(CC)CC)ccc23)CC1` [Example 319, Ethyl 4-(2-(2-chlorophenyl)-7-(diethylcarbamoyl)quinazolin-4-yl)piperazine-1-carboxylate] the figure was over 1000 nM. As to `CC(C)(C)c1ccc(-c2nc(NC3CCCCC3)c3ccccc3n2)cc1` [Example 129, 2-(4-tert-Butylphenyl)quinazolin-4-yl cyclohexylamine], the EC50 in test [2] (setting [3]) is under 1000 nM. Still for that read-out and setting: next, `c1ccc2c(N3CCCC3)nc(C3CCCC3)nc2c1` [Example 135, 2-Cyclopentyl-4-pyrrolidin-1-ylquinazoline]: over 1000 nM; `CN1CCN(c2nc(-c3ccccc3Cl)nc3ccc(Br)cc23)CC1` [Example 183, 6-Bromo-2-(2-chlorophenyl)-4-(4-methylpiperazin-1-yl)quinazoline]: under 1000 nM. On the same count and under the same terms, with `Cc1c(Cl)cccc1S(=O)(=O)NCc1nc(N2CCOCC2)c2ccccc2n1` [Example 295, 3-Chloro-2-methyl-N-((4-morpholinoquinazolin-2-yl)methyl)benzenesulfonamide] the figure was over 1000 nM.

Consider `COC(CNc1nc(-c2ccccc2Cl)nc2ccccc12)OC` [Example 230, 2-(2-Chlorophenyl)-N-(2,2-dimethoxyethyl)quinazolin-4-amine], for which the EC50 in test [2] (setting [3]) is over 1000 nM. Regarding `O=S(=O)(NCc1nc(N2CCOCC2)c2ccccc2n1)c1ccccc1Br` [Example 292, 2-Bromo-N-((4-morpholinoquinazolin-2-yl)methyl)benzenesulfonamide], the EC50 in test [2] (setting [3]) was under 1000 nM.
